Assay results taken from ChEMBL document CHEMBL1201862, “PubChem BioAssay data set” (2004).
Each block holds one molecule with its values, some of them ahead of it. The source made the active and inactive calls.

Columns and labels:
[1] = molecular target: Scavenger receptor class B member 1 (Mus musculus, UniProt Q61009); assay: inhibitors of SR-BI mediated HDL lipid uptake, dose response, ldlA[mSR-BI] cells, fluorescence, cherry pick (AID 493194); assay type: functional, cell-based;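 also: cellular uptake of fluorescent DiI-labeled HDL measured as cell fluorescence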
Chain of Scavenger receptor class B member 1 (Q61009 whole entry, the tested form may be a part): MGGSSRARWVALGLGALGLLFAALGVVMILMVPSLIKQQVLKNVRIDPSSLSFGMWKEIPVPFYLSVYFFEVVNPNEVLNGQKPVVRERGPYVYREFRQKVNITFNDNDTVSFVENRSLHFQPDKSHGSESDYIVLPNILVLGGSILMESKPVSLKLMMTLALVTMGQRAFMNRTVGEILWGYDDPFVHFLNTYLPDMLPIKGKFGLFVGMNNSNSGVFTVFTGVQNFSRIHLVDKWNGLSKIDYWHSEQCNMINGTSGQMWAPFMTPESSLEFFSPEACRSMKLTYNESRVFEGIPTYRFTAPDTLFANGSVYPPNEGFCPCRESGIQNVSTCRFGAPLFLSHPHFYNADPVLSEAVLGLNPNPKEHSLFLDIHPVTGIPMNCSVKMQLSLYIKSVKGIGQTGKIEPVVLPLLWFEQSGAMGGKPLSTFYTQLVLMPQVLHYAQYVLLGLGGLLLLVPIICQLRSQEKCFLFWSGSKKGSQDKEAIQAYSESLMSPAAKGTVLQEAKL

[2] = off-target signal loss in HeLa-CEM21 co-culture – HeLa F-luc CTL cells, cherry-picked, counter-screen for HIV-1 Env fusion inhibitor project, dose response (AID 652040); assay type: functional, cell-based;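 also: potency for signal decrease marking cytotoxic or nonspecific inhibition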
[3] = human group III sPLA2 inhibitors, dose response, biochemical, QFRET, IC50 (AID 743457);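 also: green fluorescence rise as the enzyme cleaves BODIPY PC-A2 in liposomes; potency for inhibition of the enzyme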
[4] = molecular target: Cytochrome P450 2C19 (Homo sapiens, UniProt P33261); assay: Cytochrome panel assay with activity outcomes. Panel member name: p450-cyp2c19 Compounds with AC50 equal or less than 10 uM are considered active; assay type: functional
Chain of Cytochrome P450 2C19 (P33261 whole entry): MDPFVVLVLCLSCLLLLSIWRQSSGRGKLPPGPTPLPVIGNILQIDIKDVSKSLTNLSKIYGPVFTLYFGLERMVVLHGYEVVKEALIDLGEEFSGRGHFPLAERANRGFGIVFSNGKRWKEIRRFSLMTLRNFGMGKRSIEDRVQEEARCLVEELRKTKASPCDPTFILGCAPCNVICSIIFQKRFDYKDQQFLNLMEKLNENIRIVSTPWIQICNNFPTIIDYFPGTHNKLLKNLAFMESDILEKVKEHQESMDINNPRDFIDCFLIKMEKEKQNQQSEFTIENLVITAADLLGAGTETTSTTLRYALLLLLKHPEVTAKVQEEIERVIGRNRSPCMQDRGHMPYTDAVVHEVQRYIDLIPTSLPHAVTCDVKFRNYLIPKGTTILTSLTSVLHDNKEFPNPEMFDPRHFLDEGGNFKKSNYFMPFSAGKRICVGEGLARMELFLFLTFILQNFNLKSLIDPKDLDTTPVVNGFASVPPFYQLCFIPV

[5] = molecular target: Cytochrome P450 3A4 (Homo sapiens, UniProt P08684);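 also: CYP3A4 tested as one member of a cytochrome P450 panel screen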
Chain of Cytochrome P450 3A4 (P08684 whole entry): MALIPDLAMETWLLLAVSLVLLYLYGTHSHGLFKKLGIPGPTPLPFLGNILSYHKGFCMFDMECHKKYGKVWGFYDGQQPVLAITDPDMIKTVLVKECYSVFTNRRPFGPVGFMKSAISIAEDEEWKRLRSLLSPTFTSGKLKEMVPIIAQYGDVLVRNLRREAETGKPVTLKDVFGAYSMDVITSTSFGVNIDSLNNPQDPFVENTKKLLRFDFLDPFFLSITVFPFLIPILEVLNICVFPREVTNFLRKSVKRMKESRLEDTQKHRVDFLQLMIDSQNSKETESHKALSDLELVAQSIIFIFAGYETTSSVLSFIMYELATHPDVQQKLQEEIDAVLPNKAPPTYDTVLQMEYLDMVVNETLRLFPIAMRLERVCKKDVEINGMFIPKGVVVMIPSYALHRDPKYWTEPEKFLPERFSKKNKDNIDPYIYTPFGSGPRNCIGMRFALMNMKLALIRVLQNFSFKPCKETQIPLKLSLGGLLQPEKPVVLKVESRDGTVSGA

[6] = molecular target: Cytochrome P450 2D6 (Homo sapiens, UniProt P10635);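 also: CYP2D6 member of a cytochrome P450 panel assay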
Chain of Cytochrome P450 2D6 (P10635 whole entry): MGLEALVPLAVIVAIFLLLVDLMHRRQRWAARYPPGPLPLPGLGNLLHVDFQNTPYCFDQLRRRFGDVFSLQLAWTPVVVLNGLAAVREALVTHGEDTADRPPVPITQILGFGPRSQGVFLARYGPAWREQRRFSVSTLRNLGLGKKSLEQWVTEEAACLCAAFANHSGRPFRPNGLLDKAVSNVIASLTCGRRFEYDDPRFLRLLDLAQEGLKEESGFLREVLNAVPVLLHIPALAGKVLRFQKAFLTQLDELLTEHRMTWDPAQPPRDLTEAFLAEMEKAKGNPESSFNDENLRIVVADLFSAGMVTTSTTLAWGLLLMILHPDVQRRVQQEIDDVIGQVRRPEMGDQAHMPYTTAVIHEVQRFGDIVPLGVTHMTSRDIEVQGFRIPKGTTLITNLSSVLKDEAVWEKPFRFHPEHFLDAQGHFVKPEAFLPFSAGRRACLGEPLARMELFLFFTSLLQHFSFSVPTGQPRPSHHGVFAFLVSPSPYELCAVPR

[7] = molecular target: Exodeoxyribonuclease V (Escherichia coli (strain K12), UniProt P04993+P07648+P08394); assay: E. coli RecBCD inhibitors, dose response, counter-screen for AddAB inhibitor project, absorbance, V66 E. coli, mutant T4 phage (AID 492957); assay type: functional, cell-based, Escherichia coli str. K-12 substr. MG1655
[8] = Counterscreen for AddAB inhibitors: absorbance-based bacterial cell-based high throughput dose response assay for inhibitors of bacterial viability. [Related pubchem assays (depositor defined):AID435030, AID449728, AID449731, AID488942, AID488955, AID488956]; assay type: functional
[9] = molecular target: SUMO-activating enzyme (Homo sapiens, UniProt Q9UBT2); assay: SUMOylation inhibitor hit validation, confirmation, SUMOylation inhibitor project, biochemical, AlphaScreen (AID 2018); assay type: functional
Chain of SUMO-activating enzyme (Q9UBE0 whole entry): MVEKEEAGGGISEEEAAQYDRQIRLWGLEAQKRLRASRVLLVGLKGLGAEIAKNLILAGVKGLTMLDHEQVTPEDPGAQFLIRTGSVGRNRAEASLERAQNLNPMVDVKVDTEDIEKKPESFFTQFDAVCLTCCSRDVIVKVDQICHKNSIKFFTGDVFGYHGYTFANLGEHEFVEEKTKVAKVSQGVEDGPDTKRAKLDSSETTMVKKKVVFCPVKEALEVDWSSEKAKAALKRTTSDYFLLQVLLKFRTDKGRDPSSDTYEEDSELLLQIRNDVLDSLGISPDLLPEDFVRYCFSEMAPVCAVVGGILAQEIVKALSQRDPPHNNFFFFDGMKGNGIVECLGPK
Chain of SUMO-activating enzyme (Q9UBT2 whole entry): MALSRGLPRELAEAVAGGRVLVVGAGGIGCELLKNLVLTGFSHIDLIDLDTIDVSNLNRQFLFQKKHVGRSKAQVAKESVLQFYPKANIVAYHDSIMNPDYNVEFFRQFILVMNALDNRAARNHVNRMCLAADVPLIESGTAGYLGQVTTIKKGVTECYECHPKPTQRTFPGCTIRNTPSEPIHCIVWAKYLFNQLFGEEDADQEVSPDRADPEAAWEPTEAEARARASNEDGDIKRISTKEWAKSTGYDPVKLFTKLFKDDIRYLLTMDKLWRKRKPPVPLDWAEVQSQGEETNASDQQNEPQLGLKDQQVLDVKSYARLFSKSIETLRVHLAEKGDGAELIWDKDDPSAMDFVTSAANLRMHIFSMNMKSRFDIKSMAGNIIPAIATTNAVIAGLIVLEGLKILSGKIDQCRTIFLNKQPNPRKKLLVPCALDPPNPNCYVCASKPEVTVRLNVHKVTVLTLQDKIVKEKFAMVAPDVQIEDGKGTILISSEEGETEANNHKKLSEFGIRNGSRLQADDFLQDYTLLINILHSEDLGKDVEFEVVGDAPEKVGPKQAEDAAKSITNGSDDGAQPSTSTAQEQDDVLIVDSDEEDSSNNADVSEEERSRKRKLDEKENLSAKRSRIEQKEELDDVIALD

Structure (SMILES): CCOc1ccc2c(c1)-c1c(ssc1=S)C(C)(C)N2C(=O)c1ccco1
AC50 [1]: 13.7 µM (active)
AC50 [2]: 17.6 µM (active)
IC50 [3]: 46.2 µM (inactive)

Structure (SMILES): C[C@@H]1/C=C\CC(=O)OC[C@H](C)C(=O)N[C@@H](Cc2ccccc2)C(=O)OC1
AC50 [4]: inconclusive
AC50 [5]: 3.16 µM (inconclusive)
AC50 [6]: inconclusive

Structure (SMILES): CCOC(=O)c1cn(CC)c2cc(N3CCSCC3)c(F)cc2c1=O
IC50 [7]: > 119 µM (inactive)
IC50 [8]: 63.8 µM (inactive)

Other lines, results leading:

AC50 [1]: 19.4 µM (active)
Structure (SMILES): COc1ccccc1Nc1nc(-c2c(C)[nH]c3ccccc23)cs1

IC50 [9]: 96.7 µM (active)
Structure (SMILES): CCCCOc1ccc(/C=C/C(=O)Nc2ccc(C(N)=O)cc2)cc1
